As usually defined, the pEC50 is −log10 of the EC50, conventionally taken in molar units.

pEC50: −log10 of the molar value. Where a SMILES comes first, the peptide text is derived from it. [ ]: non-standard residue; d: D form. The star is where a group is joined. Cha = N[C@@H](CC1CCCCC1)C(=O)O; Nicotinoyl = O=C(c1cccnc1)*

A short description of the first test: Inhibition of [3H]S-(p-F-Phe)-Har-L-Har-KY-NH2 binding to Thrombin receptor 1 (PAR-1) on membranes from CHRF cells.
In the case of `N=C(N)NCCC[C@H](NC(=O)[C@H](CC1CCCCC1)NC(=O)c1ccc(N)nc1)C(=O)N[C@@H](Cc1ccccc1)C(N)=O` [6-Amino-N-{(S)-1-[(S)-1-((S)-1-carbamoyl-2-phenyl-ethylcarbamoyl)-4-guanidino-butylcarbamoyl]-2-cyclohexyl-ethyl}-nicotinamide], the pEC50 is 5.92.

Regarding `CC(C)C[C@H](NC(=O)[C@H](CC(C)C)NC(=O)[C@H](Cc1ccccc1)NC(=O)[C@@H](N)CO)C(=O)N[C@@H](CCCNC(=N)N)C(=O)N[C@@H](CC(N)=O)C(N)=O` [(S)-2-[(S)-2-((S)-2-{(S)-2-[(S)-2-((S)-2-Amino-3-hydroxy-propionylamino)-3-phenyl-propionylamino]-4-methyl-pentanoylamino}-4-methyl-pentanoylamino)-5-guanidino-pentanoylamino]-succinamide], the negative-log EC50 (pEC50) is 6.55. For `N=C(N)NCCC[C@H](NC(=O)[C@H](CC1CCCCC1)NC(=O)C=Cc1cccnc1)C(=O)N[C@@H](Cc1ccccc1)C(N)=O` [(S)-2-[(S)-3-Cyclohexyl-2-((E)-3-pyridin-3-yl-acryloylamino)-propionylamino]-5-guanidino-pentanoic acid ((S)-1-carbamoyl-2-phenyl-ethyl)-amide], the pEC50 is 5.59. In turn, `N=C(N)NCCC[C@H](NC(=O)[C@H](CC1CCCCC1)NC(=O)c1cc2ccccc2s1)C(=O)N[C@@H](Cc1ccccc1)C(N)=O` [Benzo[b]thiophene-2-carboxylic acid {(S)-1-[(S)-1-((S)-1-carbamoyl-2-phenyl-ethylcarbamoyl)-4-guanidino-butylcarbamoyl]-2-cyclohexyl-ethyl}-amide] had a pEC50 of 5.08. On the same count and under the same terms, the value for `N=C(N)NCCC[C@H](NC(=O)[C@H](CC1CCCCC1)NC(=O)c1cc2ccccc2o1)C(=O)N[C@@H](Cc1ccccc1)C(N)=O` [Benzofuran-2-carboxylic acid {(S)-1-[(S)-1-((S)-1-carbamoyl-2-phenyl-ethylcarbamoyl)-4-guanidino-butylcarbamoyl]-2-cyclohexyl-ethyl}-amide] was 4.90; that for `N=C(N)NCCC[C@H](NC(=O)[C@H](CC1CCCCC1)NC(=O)c1ccc2c(c1)-c1ccccc1-2)C(=O)N[C@@H](Cc1ccccc1)C(N)=O` [Biphenylene-2-carboxylic acid {(S)-1-[(S)-1-((S)-1-carbamoyl-2-phenyl-ethylcarbamoyl)-4-guanidino-butylcarbamoyl]-2-cyclohexyl-ethyl}-amide] was 5.92.

Consider `N=C(N)NCCC[C@H](NC(=O)[C@H](CC1CCCCC1)NC(=O)c1ccc(Cl)nc1)C(=O)N[C@@H](Cc1ccccc1)C(N)=O` [N-{(S)-1-[(S)-1-((S)-1-Carbamoyl-2-phenyl-ethylcarbamoyl)-4-guanidino-butylcarbamoyl]-2-cyclohexyl-ethyl}-6-chloro-nicotinamide], for which the negative-log EC50 (pEC50) is 5.34. In turn, `N=C(N)NCCC[C@H](NC(=O)[C@H](CC1CCCCC1)NC(=O)c1cccnc1)C(=O)N[C@@H](Cc1ccccc1)C(N)=O` [N-{(S)-1-[(S)-1-((S)-1-Carbamoyl-2-phenyl-ethylcarbamoyl)-4-guanidino-butylcarbamoyl]-2-cyclohexyl-ethyl}-nicotinamide] (Nicotinoyl-[Cha]-Arg-Phe-NH2) showed a negative-log EC50 (pEC50) of 5.70. Turning to `N=C(N)NCCC[C@H](NC(=O)[C@H](CC1CCCCC1)NC(=O)c1ccccn1)C(=O)N[C@@H](Cc1ccccc1)C(N)=O` [Pyridine-2-carboxylic acid {(S)-1-[(S)-1-((S)-1-carbamoyl-2-phenyl-ethylcarbamoyl)-4-guanidino-butylcarbamoyl]-2-cyclohexyl-ethyl}-amide], the negative logarithm of the EC50 (pEC50) is 4.85. On to `N=C(N)NCCC[C@H](NC(=O)[C@H](CC1CCCCC1)NC(=O)c1cnc2ccccc2n1)C(=O)N[C@@H](Cc1ccccc1)C(N)=O` [Quinoxaline-2-carboxylic acid {(S)-1-[(S)-1-((S)-1-carbamoyl-2-phenyl-ethylcarbamoyl)-4-guanidino-butylcarbamoyl]-2-cyclohexyl-ethyl}-amide], for which the pEC50 is 6.00.

`N=C(N)NCCC[C@H](NC(=O)[C@H](CC1CCCCC1)NC(=O)c1csnn1)C(=O)N[C@@H](Cc1ccccc1)C(N)=O` [[1,2,3]Thiadiazole-4-carboxylic acid {(S)-1-[(S)-1-((S)-1-carbamoyl-2-phenyl-ethylcarbamoyl)-4-guanidino-butylcarbamoyl]-2-cyclohexyl-ethyl}-amide] had a pEC50 of 5.89.

The next test can be described thus: Activation of human platelet aggregation (gel-filtered platelets) induced by alpha thrombin.
As to `N=C(N)NCCC[C@H](NC(=O)[C@H](Cc1ccccc1)NC(=O)c1ccc2nc[nH]c2c1)C(=O)N[C@@H](Cc1ccccc1)C(N)=O` [1H-Benzoimidazole-5-carboxylic acid {(S)-1-[(S)-1-((S)-1-carbamoyl-2-phenyl-ethylcarbamoyl)-4-guanidino-butylcarbamoyl]-2-phenyl-ethyl}-amide], the pEC50 is 5.31. Molecule `N=C(N)NCCC[C@H](NC(=O)[C@H](CC1CCCCC1)NC(=O)c1nccnc1N)C(=O)N[C@@H](Cc1ccccc1)C(N)=O` [3-Amino-pyrazine-2-carboxylic acid {(S)-1-[(S)-1-((S)-1-carbamoyl-2-phenyl-ethylcarbamoyl)-4-guanidino-butylcarbamoyl]-2-cyclohexyl-ethyl}-amide] had a negative logarithm of the EC50 (pEC50) of 5.38. `N=C(N)NCCC[C@H](NC(=O)[C@H](CC1CCCCC1)NC(=O)c1cc(=O)c2ccccc2o1)C(=O)N[C@@H](Cc1ccccc1)C(N)=O` [4-Oxo-4H-chromene-2-carboxylic acid {(S)-1-[(S)-1-((S)-1-carbamoyl-2-phenyl-ethylcarbamoyl)-4-guanidino-butylcarbamoyl]-2-cyclohexyl-ethyl}-amide] gave a pEC50 of 6.29. Regarding `N=C(N)NCCC[C@H](NC(=O)[C@H](CC1CCCCC1)NC(=O)c1nnc(NC(=O)C=Cc2cccc3ccccc23)[nH]1)C(=O)N[C@@H](Cc1ccccc1)C(N)=O` [5-((E)-3-Naphthalen-1-yl-acryloylamino)-1H-[1,2,4]triazole-3-carboxylic acid {(S)-1-[(S)-1-((S)-1-carbamoyl-2-phenyl-ethylcarbamoyl)-4-guanidino-butylcarbamoyl]-2-cyclohexyl-ethyl}-amide], the pEC50 was 6.00. As for `N=C(N)NCCC[C@H](NC(=O)[C@H](CC1CCCCC1)NC(=O)c1nnc(N)[nH]1)C(=O)N[C@H](C(N)=O)c1ccccc1` [5-Amino-1H-[1,2,4]triazole-3-carboxylic acid ((S)-1-{(S)-1-[((S)-carbamoyl-phenyl-methyl)-carbamoyl]-4-guanidino-butylcarbamoyl}-2-cyclohexyl-ethyl)-amide], the pEC50 was 5.51.

`N=C(N)NCCC[C@H](NC(=O)[C@H](CC1CCCCC1)NC(=O)c1nnc(N)[nH]1)C(=O)N[C@@H](Cc1ccccc1)C(N)=O` [5-Amino-1H-[1,2,4]triazole-3-carboxylic acid {(S)-1-[(S)-1-((S)-1-carbamoyl-2-phenyl-ethylcarbamoyl)-4-guanidino-butylcarbamoyl]-2-cyclohexyl-ethyl}-amide] had a negative-log EC50 (pEC50) of 6.12. Consider `N=C(N)NCCC[C@H](NC(=O)[C@H](Cc1ccccc1)NC(=O)c1nnc(N)[nH]1)C(=O)N[C@@H](Cc1ccccc1)C(N)=O` [5-Amino-1H-[1,2,4]triazole-3-carboxylic acid {(S)-1-[(S)-1-((S)-1-carbamoyl-2-phenyl-ethylcarbamoyl)-4-guanidino-butylcarbamoyl]-2-phenyl-ethyl}-amide], for which the pEC50 was 6.00.

In turn, `NCCCC[C@H](NC(=O)[C@H](CC1CCCCC1)NC(=O)c1nnc(N)[nH]1)C(=O)N[C@@H](Cc1ccccc1)C(N)=O` [5-Amino-1H-[1,2,4]triazole-3-carboxylic acid {(S)-1-[(S)-5-amino-1-((S)-1-carbamoyl-2-phenyl-ethylcarbamoyl)-pentylcarbamoyl]-2-cyclohexyl-ethyl}-amide] had a negative logarithm of the EC50 (pEC50) of 5.41. In turn, `N=C(N)NCCC[C@H](NC(=O)[C@H](CC1CCCCC1)NC(=O)c1nnc(NC(=O)C=Cc2cccc(Cl)c2)[nH]1)C(=O)N[C@@H](Cc1ccccc1)C(N)=O` [5-[(E)-3-(3-Chloro-phenyl)-acryloylamino]-1H-[1,2,4]triazole-3-carboxylic acid {(S)-1-[(S)-1-((S)-1-carbamoyl-2-phenyl-ethylcarbamoyl)-4-guanidino-butylcarbamoyl]-2-cyclohexyl-ethyl}-amide] gave a negative-log EC50 (pEC50) of 5.62. `N=C(N)NCCC[C@H](NC(=O)[C@H](CC1CCCCC1)NC(=O)c1nnc(NC(=O)C=Cc2ccc(F)cc2)[nH]1)C(=O)N[C@@H](Cc1ccccc1)C(N)=O` [5-[(E)-3-(4-Fluoro-phenyl)-acryloylamino]-1H-[1,2,4]triazole-3-carboxylic acid {(S)-1-[(S)-1-((S)-1-carbamoyl-2-phenyl-ethylcarbamoyl)-4-guanidino-butylcarbamoyl]-2-cyclohexyl-ethyl}-amide]: the pEC50 was 5.10. In turn, `N=C(N)NCCC[C@H](NC(=O)[C@H](CC1CCCCC1)NC(=O)c1nnc(NC(=O)C=Cc2ccccc2)[nH]1)C(=O)N[C@@H](Cc1ccccc1)C(N)=O` [5-[(E)-(3-Phenyl-acryloyl)amino]-1H-[1,2,4]triazole-3-carboxylic acid {(S)-1-[(S)-1-((S)-1-carbamoyl-2-phenyl-ethylcarbamoyl)-4-guanidino-butylcarbamoyl]-2-cyclohexyl-ethyl}-amide] had a negative logarithm of the EC50 (pEC50) of 4.68.

For the origin of these results see BindingDB's records for doi:10.1016/s0960-894x(99)00197-3 (The R. W. Johnson Pharmaceutical Research Institute, 1999).
